From patent US20260347399A1, “BRAIN PENETRATING PEPTIDES AND METHODS OF USE” (priority 2022, published 2026)
“Also recorded” adds a separate entry of the source. Where two headings read alike, the source gives them in different places. Peptide text beside a SMILES is read from it. * marks the point of attachment. 5FAM = O=C1OC2(c3ccc(O)cc3Oc3cc(O)ccc32)c2ccc(C(=O)*)cc21; FAM = 5(6)-carboxyfluorescein; Ahx = NCCCCCC(=O)O

Tests used:
[1] = test system: GBM and normal brain parenchyma; assay: Synthetic peptide homing in glioma-bearing mice (IHC); format: in vivo, mouse; settings: synthetic peptide i.v., 1 h; WT-GBM and VEGFko GBM-bearing mice
Experimental: CVGTNCY (SEQ ID NO:2) peptide-phage or control phage were injected iv into mice, after one hour circulation animals were perfused with 20 ml PBS, organs were collected, weighed, and dropped to 1% NP40-LB solution. Organs were homogenized and titer of each tissue was determined. FAM-labeled peptides (2 mM of peptide in PBS) were injected intravenously and 3 hours later the animals were perfused with 20 mL of PBS. The organs were excised, snap-frozen in the vapor of liquid nitrogen, and stored at −80 °C. For confocal microscopy, the tissues were sectioned at 15 μm and stained with antibodies and DAPI.
Cryosections (15 μm) on Superfrost Plus slides were fixed in cold methanol, washed in PBS, treated with 3% hydrogen peroxide, and blocked in PBS containing 0.05% Tween-20, 5% BSA, and 5% goat serum (GE Healthcare, UK) for 1 h. The sections were immunostained with rabbit anti-fluorescein (cat #A889, Thermo Fisher Scientific, MA, USA) antibody overnight at +4 °C. […] Sections were imaged with Leica Aperio VERSA microscope slide scanner. Imaged were processed with Aperio Image Scope (v12.4.3.5008).
The synthetic CVGTNCY (SEQ ID NO:2) peptide or scrambled CVGTNCY (SEQ ID NO:2) homing in WT-GBM and VEGFko GBM-bearing mice was analyzed after i.v. injection and perfusion of the animals. Cryosections of glioma-bearing brains were stained with anti-FAM antibody and tyramide amplification kit to enhance the signal of the peptide.
To assess homing of CVG peptide in glioblastoma, CVGTNCY (SEQ ID NO:2) peptide-phage was injected iv into mice bearing either WT-GBM, VEGFko, U87MG or NCH421k GBM, and to mice without a tumor. At one hour time point mice were perfused, brains and control organs collected and titered. […] (FIGS. 17A-17B) Distribution of CVG peptide in GBM and brain parenchyma was also assessed. CVGTNCY (SEQ ID NO:2) peptide or its scrambled version (CVYTCNG; (SEQ ID NO: 68)) was injected iv into glioma bearing mice, after 1 hour circulation mice were perfused and tissues of interest snap-frozen in liquid nitrogen.

Neuro2A cells [2] = assay: In vitro FAM-peptide binding and uptake; format: cell-based, mouse; settings: 30 μM, 1 h, 4 °C (binding) or 37 °C (uptake)
Experimental: To assess the binding and uptake of Cerepep peptide, Neuro2A were cultured in 24-well plates on polylysine coated glass coverslips until 80-90% confluency. FAM-Cerepep (FAM-Ahx-SRRVISRAKLAAAL-OH (SEQ ID NO:9)) or control FAM-RPAR (FAM-RPARPAR-OH (SEQ ID NO:74)) peptide with the final concentration of 30 µM was added to Neuro2A cells in growth media and incubated at 4 °C (to study the binding) or 37 °C (to study the uptake) for 1 h. The cells were washed 4 times with growth media and fixed in methanol. The samples were stained with anti-fluorescein antibody to enhance the FAM signal. The fixed cells were first blocked with PBST (PBS+0.05% Tween 20), 5% BSA, 5% goat serum at RT for 30 min, followed by incubation with rabbit anti-fluorescein IgG (cat. no. A889, Thermo Fisher Scientific, MA, USA) at 4 °C for O/N and Alexa 647 goat anti-rabbit IgG secondary antibody at RT for 1h. Nuclei were counterstained with DAPI at 1 μg/ml. The coverslips were mounted on glass slides with Fluoromount-G (Electron Microscopy Sciences, PA, USA), imaged using confocal microscopy (Olympus FV1200MPE, Tokyo, Japan) and analyzed using the FV10-ASW4.2 software.
The binding (at 4 °C) and uptake (at 37 °C) of synthetic FAM-Cerepep by Neuro2A cells was also studied, comparing it to a control FAM-RPAR peptide which has a similar charge.

mouse brain = assay: FAM-Cerepep brain distribution; format: in vivo; settings: 100 μl of 2 mM i.v., 2.5 h circulation
Experimental: To assess the ability of FAM-conjugated to Cerepep to traverse the BBB, 100 μl of 2 mM FAM-Cerepep or FAM-scrambled Control peptide (SARVISRAKLARAL (SEQ ID NO:70)) was injected into the tail vein of mice n=3. After 2.5 h of circulation, the animals were anesthetized and perfused, the brains were collected, cryosected, fixed, permeabilized, and incubated with CD31-rat and anti-fluorescein-rabbit primary antibodies at room temperature for 2 hours. After washes, sections were incubated with Alexa Fluor […] anti-rat and Alexa Fluor 647 anti-rabbit secondary antibodies, washed and stained with DAPI. Images were taken using a confocal microscope in 4 different areas of the brain (cortex, cerebellum, hippocampus, brainstem).
To quantify FAM-Cerepep in different regions of the brain, expts were set up to assess fluorescence intensity. Briefly, 100 μl of 2 mM FAM-Cerepep or FAM-scrambled peptide (SARVISRAKLARAL (SEQ ID NO:70)) was injected into the tail vein of mice n=3. […] Images were taken under a confocal microscope in 4 different areas of the brain (cortex, cerebellum, hippocampus, brainstem), and fluorescence intensity in each brain region was measured and quantified using ImageJ, as depicted in FIGS. 22A-22E.

mature neurons = assay: FAM-Cerepep colocalization with mature neurons; format: in vivo, mouse; settings: 100 μl of 2 mM i.v., 2.5 h
Experimental: (§1) To assess the ability of FAM-conjugated to Cerepep to colocalize with mature neurons, 100 μl of 2 mM FAM-Cerepep or FAM-scramble (SARVISRAKLARAL (SEQ ID NO: 70)) was injected into the tail vein of mice n=3. After 2.5 h of circulation, the animals were anesthetized and perfused, the brains were collected, cryosected, fixed, permeabilized, and incubated with NeuN-mouse and anti-fluorescein-rabbit primary antibodies for 2 hours at room temperature. After washes, sections were incubated with Alexa Fluor […] anti-mouse and Alexa Fluor 647 anti-rabbit secondary antibodies, sections were washed and stained with DAPI. Pictures were taken under a confocal microscope in 4 different areas of the brain (cortex, cerebellum, hippocampus, brainstem).

astrocytes = assay: FAM-Cerepep colocalization with astrocytes; format: in vivo, mouse; settings: 100 μl of 2 mM i.v., 2.5 h
Experimental: as §1, with “astrocytes,” for “mature neurons,”, “NO:70))” for “NO: 70))”, “GFAP-rat” for “NeuN-mouse”, “anti-rat” for “anti-mouse”

microglia = assay: FAM-Cerepep colocalization with microglia; format: in vivo, mouse; settings: 100 μl of 2 mM i.v., 2.5 h
Experimental: To assess the ability of FAM-conjugated to Cerepep to colocalize with microglia, 100 μl of 2 mM FAM-Cerepep or FAM-scramble (SARVISRAKLARAL (SEQ ID NO: 70)) was injected into the tail vein of mice n=3. After 2.5 h of circulation, the animals were anesthetized and perfused, the brains were collected, cryosected, fixed, permeabilized, and incubated with CD11b-rat and anti-fluorescein-rabbit primary antibodies at room temperature for 2 hours. After washes, sections were incubated with Alexa Fluor […] anti-rat and Alexa Fluor 647 anti-rabbit secondary antibodies, sections were washed and stained with DAPI. Pictures were taken under a confocal microscope in 4 different areas of the brain (cortex, cerebellum, hippocampus, brainstem).

[3] = test system: Huntington's disease subjects; settings: human, in vivo; cited from earlier work
ADHD / ASD subjects = settings: cited from earlier work
human LRP1 = human LRP1 (Homo sapiens, UniProt Q07954); assay: Surface plasmon resonance analysis; format: binding; settings: SPR
human LRP1, sequence (Q07954 20-4544): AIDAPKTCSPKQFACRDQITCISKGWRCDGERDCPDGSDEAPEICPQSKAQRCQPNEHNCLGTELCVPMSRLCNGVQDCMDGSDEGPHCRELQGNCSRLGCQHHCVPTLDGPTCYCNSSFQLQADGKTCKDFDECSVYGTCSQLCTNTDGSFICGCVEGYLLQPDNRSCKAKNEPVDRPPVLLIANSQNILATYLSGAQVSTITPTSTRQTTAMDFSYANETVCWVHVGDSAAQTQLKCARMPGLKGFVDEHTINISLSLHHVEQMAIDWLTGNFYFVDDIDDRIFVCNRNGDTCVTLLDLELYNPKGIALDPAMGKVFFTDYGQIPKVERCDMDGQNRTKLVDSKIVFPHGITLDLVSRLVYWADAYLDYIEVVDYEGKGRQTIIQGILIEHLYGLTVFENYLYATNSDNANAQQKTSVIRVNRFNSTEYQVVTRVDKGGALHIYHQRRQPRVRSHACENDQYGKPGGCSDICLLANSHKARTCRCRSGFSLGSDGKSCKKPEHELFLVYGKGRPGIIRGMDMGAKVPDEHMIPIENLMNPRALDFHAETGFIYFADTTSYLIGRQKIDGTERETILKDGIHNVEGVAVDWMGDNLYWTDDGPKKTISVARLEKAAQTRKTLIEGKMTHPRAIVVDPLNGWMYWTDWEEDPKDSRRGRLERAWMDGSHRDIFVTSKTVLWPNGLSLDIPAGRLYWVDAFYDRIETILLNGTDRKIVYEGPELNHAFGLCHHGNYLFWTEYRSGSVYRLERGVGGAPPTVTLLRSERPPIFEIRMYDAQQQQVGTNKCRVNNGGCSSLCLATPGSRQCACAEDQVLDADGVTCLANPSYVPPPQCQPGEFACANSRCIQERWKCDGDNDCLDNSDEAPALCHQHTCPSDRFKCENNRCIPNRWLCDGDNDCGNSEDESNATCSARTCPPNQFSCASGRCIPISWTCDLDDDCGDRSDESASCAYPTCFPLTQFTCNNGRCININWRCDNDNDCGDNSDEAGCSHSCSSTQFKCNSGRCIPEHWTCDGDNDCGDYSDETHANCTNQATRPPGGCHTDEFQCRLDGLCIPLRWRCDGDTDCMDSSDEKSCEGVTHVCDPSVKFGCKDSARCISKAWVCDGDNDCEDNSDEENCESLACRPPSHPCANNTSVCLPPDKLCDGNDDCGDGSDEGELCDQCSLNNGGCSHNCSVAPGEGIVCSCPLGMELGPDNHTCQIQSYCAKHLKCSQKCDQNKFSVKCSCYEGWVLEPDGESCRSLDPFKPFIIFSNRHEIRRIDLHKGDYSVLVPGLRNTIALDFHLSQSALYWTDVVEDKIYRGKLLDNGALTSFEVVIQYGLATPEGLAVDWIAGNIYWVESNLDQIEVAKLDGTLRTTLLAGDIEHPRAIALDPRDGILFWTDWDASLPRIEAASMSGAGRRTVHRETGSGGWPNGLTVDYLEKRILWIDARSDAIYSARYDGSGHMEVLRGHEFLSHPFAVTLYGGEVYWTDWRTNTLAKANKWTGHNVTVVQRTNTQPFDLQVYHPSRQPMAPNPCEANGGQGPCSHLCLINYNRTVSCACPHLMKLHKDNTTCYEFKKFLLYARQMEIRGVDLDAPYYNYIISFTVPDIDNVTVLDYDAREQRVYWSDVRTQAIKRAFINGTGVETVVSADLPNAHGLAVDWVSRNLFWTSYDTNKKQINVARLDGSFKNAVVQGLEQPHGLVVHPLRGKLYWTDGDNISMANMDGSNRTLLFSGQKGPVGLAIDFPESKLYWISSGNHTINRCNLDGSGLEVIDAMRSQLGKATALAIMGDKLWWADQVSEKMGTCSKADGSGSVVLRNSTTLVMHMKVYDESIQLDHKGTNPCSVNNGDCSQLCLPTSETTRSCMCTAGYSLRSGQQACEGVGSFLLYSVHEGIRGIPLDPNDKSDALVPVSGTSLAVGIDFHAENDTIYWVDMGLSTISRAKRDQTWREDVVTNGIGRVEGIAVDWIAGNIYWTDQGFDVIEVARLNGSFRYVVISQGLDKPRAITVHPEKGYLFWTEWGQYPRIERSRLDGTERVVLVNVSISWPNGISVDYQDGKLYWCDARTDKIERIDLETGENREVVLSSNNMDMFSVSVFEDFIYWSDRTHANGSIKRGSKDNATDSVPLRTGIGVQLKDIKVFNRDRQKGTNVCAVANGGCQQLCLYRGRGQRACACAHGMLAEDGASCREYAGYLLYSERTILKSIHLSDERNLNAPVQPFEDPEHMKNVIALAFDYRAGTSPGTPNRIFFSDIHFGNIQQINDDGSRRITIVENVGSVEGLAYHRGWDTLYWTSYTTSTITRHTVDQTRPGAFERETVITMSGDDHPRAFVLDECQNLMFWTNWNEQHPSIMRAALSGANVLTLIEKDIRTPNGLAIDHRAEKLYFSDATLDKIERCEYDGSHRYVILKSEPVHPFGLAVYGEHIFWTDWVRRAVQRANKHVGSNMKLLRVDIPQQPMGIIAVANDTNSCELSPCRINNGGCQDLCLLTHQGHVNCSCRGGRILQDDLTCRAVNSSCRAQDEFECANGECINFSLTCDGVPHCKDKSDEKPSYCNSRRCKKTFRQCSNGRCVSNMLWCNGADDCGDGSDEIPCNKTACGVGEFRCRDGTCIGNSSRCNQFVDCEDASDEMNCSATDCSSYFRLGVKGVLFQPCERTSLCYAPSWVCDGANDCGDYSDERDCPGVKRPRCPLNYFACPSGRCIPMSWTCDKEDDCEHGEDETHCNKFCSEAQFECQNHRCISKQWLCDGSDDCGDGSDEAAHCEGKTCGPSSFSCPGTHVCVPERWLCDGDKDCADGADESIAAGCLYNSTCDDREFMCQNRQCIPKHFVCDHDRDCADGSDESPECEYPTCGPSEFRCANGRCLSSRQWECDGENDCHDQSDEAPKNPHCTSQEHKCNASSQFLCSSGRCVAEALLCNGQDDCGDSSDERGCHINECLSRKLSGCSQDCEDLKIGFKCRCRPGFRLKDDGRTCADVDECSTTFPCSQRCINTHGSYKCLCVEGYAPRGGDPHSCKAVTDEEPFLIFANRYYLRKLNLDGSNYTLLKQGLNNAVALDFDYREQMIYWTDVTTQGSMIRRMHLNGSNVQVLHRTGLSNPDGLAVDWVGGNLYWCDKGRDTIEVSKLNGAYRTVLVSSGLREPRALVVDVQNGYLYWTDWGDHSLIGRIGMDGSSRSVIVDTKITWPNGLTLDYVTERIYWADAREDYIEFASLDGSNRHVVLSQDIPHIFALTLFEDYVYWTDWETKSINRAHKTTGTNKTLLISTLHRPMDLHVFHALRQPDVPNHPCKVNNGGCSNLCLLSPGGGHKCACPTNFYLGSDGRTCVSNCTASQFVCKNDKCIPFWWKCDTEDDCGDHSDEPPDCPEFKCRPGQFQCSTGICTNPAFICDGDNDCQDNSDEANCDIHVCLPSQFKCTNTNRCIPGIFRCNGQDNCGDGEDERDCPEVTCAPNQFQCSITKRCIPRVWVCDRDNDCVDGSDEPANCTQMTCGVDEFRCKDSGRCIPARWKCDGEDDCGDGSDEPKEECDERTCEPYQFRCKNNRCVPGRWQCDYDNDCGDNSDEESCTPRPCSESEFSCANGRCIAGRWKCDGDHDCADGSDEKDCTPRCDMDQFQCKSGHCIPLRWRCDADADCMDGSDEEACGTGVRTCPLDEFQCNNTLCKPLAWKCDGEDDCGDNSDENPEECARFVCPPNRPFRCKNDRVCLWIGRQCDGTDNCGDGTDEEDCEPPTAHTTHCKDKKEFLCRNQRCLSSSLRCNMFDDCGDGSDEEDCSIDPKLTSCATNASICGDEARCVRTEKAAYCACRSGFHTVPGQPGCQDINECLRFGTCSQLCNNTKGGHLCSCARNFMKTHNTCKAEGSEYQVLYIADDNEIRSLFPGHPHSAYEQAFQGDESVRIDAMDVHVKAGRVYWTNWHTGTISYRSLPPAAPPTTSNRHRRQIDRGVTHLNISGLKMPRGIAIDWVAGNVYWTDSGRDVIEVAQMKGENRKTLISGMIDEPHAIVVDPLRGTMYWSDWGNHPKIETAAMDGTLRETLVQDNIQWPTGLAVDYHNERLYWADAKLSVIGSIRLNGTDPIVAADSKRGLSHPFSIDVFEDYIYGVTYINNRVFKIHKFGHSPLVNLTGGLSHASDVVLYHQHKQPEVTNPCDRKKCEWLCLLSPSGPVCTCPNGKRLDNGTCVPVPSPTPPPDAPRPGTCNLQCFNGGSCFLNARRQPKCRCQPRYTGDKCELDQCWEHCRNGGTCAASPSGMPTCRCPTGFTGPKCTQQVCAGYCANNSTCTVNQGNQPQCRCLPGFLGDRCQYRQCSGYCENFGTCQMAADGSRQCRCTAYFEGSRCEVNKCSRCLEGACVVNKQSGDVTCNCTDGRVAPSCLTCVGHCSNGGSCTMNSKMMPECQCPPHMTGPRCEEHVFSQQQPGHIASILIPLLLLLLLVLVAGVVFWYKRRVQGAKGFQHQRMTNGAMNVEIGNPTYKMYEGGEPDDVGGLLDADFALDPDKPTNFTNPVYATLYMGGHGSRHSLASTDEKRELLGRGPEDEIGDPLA
Experimental: Whether Cerepep (SRRVISRAKLAAAL (SEQ ID NO:9)) binds to human LRP1 purified from placenta was tested using surface plasmon resonance analysis. […] Furthermore, binding of CP-neutravidin complex to LRP1 is inhibited by RAP and EDTA, as can be expected with LRP1 ligands.
To determine which amino acid positions are important for brain homing of SERVISRAKLAAAL (SEQ ID NO:9), a pool of peptide-phage clones was compiled, where every amino acid position was one-by-one changed to alanine (alanines were changed to leucines). The peptide-phages were mixed in equimolar ratio, the Cerepep phage was included as a positive control and insertless as a negative control. The phage mix was injected into mice and following a 1 h circulation the amount of different phage clones in the brain was determined using HTS. […] Surface plasmon resonance analysis with human LRP-1 immobilized on a BIAcore sensor chip was used to assess whether CP-neutravidin complex directly interacts with human LRP-1. Angiopep-2-neutravidin complex was used as a positive control (FIGS. 7A-7B).

P3 human stem cells = assay: Inhibition of AgNP-Cerepep binding (FACS); format: cell-based; settings: 4 °C, 1 h
Experimental: Briefly, P3 human stem cells were incubated with the indicated antibody (AB) or RAP (diluted in 20% of glycerol) at 4 °C for 1 h, after cells were exposed to AgNP-control or AgNP-Cerepep for 1 h at 4 °C, then the cells were analyzed by FACS.

Neuro2A cells [4] = assay: Effect of endocytic inhibitors on CP-AgNP uptake (flow cytometry); format: cell-based, mouse; settings: inhibitor 30 min at 37 °C: nystatin 50 μM, cytochalasin D 4 μM, chlorpromazine 30 μM
Experimental: […] The CP-AgNPs or control biotin-AgNPs were then added, and the cells were incubated at 37 °C for 1h, treated with an etching solution to remove accessible surface-bound AgNPs and subsequently washed with DPBS. The fluorescence of the labeled AgNPs was detected using the BD Accuri flow cytometer by monitoring the 555 nm channel FL2 and analyzed using FCS Express 7 software.
To study how treatment with endocytic inhibitors (nystatin, EIPA, cytochalasin D and chlorpromazine) affects the uptake of CP-AgNPs in Neuro2A cells, flow cytometry was used. Nystatin was used to block caveolae/lipid-mediated endocytosis, EIPA to block micropinocytosis, cytochalasin D to block actin polymerization and micropinocytosis and chlorpromazine to block clathrin-mediated endocytosis.

ALS subjects = settings: human, in vivo, cited from earlier work

## CC(C)[C@H](NC(=O)[C@H](CS)NC(=O)CCCCCNC(=O)c1ccc2c(c1)C(=O)OC21c2ccc(O)cc2Oc2cc(O)ccc21)C(=O)N[C@@H](Cc1ccc(O)cc1)C(=O)N[C@H](C(=O)N[C@@H](CS)C(=O)N[C@@H](CC(N)=O)C(=O)NCC(=O)O)[C@@H](C)O [CVYTCNG, reference compound] ({5FAM-Ahx}-CVYTCNG-OH)
[1]
  detection in brain parenchyma: not detectable in the brain parenchyma; also recorded: no targeting to brain parenchyma
  detection/targeting in GBM: binding was detected in the GBM

## FAM-Ahx-SRRVISRAKLAAAL-OH ({FAM-Ahx}-SRRVISRAKLAAAL-OH) [FAM-Cerepep]
Neuro2A cells [2]
  binding and uptake of FAM-peptide: bound to and was taken up by Neuro2A cells
Mouse brain
  detection in brain: could be detected in the brain tissues
Mature neurons
  association with neurons (NeuN): could be detected associated with neurons in the brain tissues
astrocytes
  association with astrocytes (GFAP): could be detected associated with astrocytes in the brain tissues
microglia
  association with microglia (CD11b): could be detected associated with microglia in the brain tissues

## NC12CC3CC(CC(C3)C1)C2 [amantadine]
[3]
  results in Huntington's disease: preliminary positive results

## FAM-RPARPAR-OH ({FAM}-RPARPAR-OH) [reference compound]
Neuro2A cells [2]
  binding and uptake of FAM-peptide: only background binding

## COC(=O)C(c1ccccc1)C1CCCCN1 (stereo not drawn) [methylphenidate]
ADHD / ASD subjects; ADHD
  treatment of ADHD: safe and effective
ADHD / ASD subjects; children with ASD
  treatment of hyperactivity in children with ASD: effectively treat hyperactivity in children with ASD

## CC(Cc1ccccc1)(NC(=O)CN)c1ccccc1 (stereo not drawn) [remacemide]
[3]
  results in Huntington's disease: preliminary positive results

## O=C(O)CN(CCN(CC(=O)O)CC(=O)O)CC(=O)O [EDTA]
Human LRP1
  inhibition of CP-neutravidin binding to LRP1: inhibited

## RAP: Receptor Associated Protein, inhibitor of several LDL-receptor proteins
Human LRP1
  inhibition of CP-neutravidin binding to LRP1: inhibited
P3 human stem cells
  effect on AgNP-Cerepep binding to P3 cells: reduced

## CC1C=CC=CCCC=CC=CC=CC=CC(OC2OC(C)C(O)C(N)C2O)CC2OC(O)(CC(O)C(O)CCC(O)CC(O)CC(O)CC(=O)OC(C)C(C)C1O)CC(O)C2C(=O)O (stereo not drawn) [Nystatin]
Neuro2A cells [4]
  inhibitory effect on the uptake of CP-AgNPs: did not have a statistically significant inhibitory effect

## Nc1nc2ccc(OC(F)(F)F)cc2s1 [riluzole, 2-amino-6-(trifluoromethoxy)benzothiazole]
ALS subjects
  survival time in subjects with ALS: borderline significance with respect to survival time
ALS subjects; listed as Riluzole
  survival time in subjects with ALS: improved survival time in subjects with ALS
